These results are taken from patent US11260083B2, “Compositions and methods for treating and preventing graft versus host disease” (The Regents of the University of Michigan, priority 2016, dated 2022).

Data set [1] concerns parent (C57BL/6J) into F1 (B6D2F1) BMT recipients. Briefly: Non-irradiated parent into F1 BMT model with butyrate. It is filed as in vivo, mouse. The conditions noted are these: intragastric butyrate.
For data set [2], the system named is allogeneic (C57BL/6J→BALB/c) BMT recipients. Put plainly: Allo-BMT with Treg-depleted donor T cells (CD4+CD25− or DREG + DT) and butyrate. It is filed as in vivo, mouse. As for the experimental part: To further determine whether the salutary effects of local treatment with butyrate on GI GVHD were dependent on donor Treg cells, a BMT was performed utilizing the same HC mismatched BMT model in which C57BL/6J (H-2b) cells are transferred to Balb/c (H-2d) mice. T cell-depleted (TCD) bone marrow was transplanted and purified CD4+CD25− T cells from donors. Vehicle or butyrate was administered to the recipients daily for 1 week, then every other day thereafter as above. […]. J. Exp. Med. 204, 57-63 (2007); Lahl, K. & Sparwasser, T. In vivo depletion of FoxP3+ Tregs using the DEREG mouse model. […]. The Treg depleted T cells were then used as donor cells in the major MHC mismatch model used above. […] To further examine whether the local administration of butyrate impacted donor T cells directly, the HDAC and HAT enzymatic activity was determined in donor T cells harvested from the recipient animals. Both the HDAC activity or HAT activity in the donor T cells harvested from the recipient spleen were similar between butyrate and vehicle treated allogeneic animals.

Data set [3] relates to CD326+ IECs. Put plainly: IEC viability assay with or without irradiation (6 Gy). It is filed as cell-based, mouse. The conditions noted are these: ex vivo. As to the method: Primary intestinal epithelial cells (IECs) were obtained from C57BL/6J mice as described previously (Lefrangois, L. & Lycke, N. Isolation of Mouse Small Intestinal Intraepithelial Lymphocytes, Peyer's Patch, and Lamina Propria Cells. (John Wiley & Sons, Inc., 2001)). Briefly, luminal contents of intestine were flushed with CMF solution. Intestine was then minced into 0.5 cm pieces, washed with CMF four times, transferred to CMF/FBS/EDTA, and incubated at 37° C. for 60 minutes (shaking tubes every 10 minutes). Supernatant containing IECs was then transferred through […] cell filter followed by incubation on ice for 10 minutes to allow sedimentation. Supernatant was again transferred through a 75 μM cell filter. CD326+ IECs were next purified utilizing either FACS or anti-APC magnetic microbeads (Miltenyi Biotec Ltd., Auburn, Calif.) and an autoMACs (Miltenyi Biotec). […]
The potential mechanisms that contribute to butyrate-induced protection from severe GVHD were explored. […] The ability of butyrate-treated IECs to withstand damage mediated by alloreactive T cells was determined by isolating and culturing primary IECs with butyrate or vehicle control, overnight. […] Because butyrate is a primary energy source for IECs 1-13, it was next determined whether butyrate enhances survival and growth of IECs in vitro. […]

The mark [4] stands for this setting: Treg depleted (DREG + DT) donor T cells.

With `CCCC(=O)[O-].[Na+]` [butyrate, sodium butyrate], in data set [1], the survival entry is given as “improved survival” and the weight loss result is reported as “Significantly less weight loss”. Also, the GVHD entry in data set [2] (TCD bone marrow and purified CD4+CD25− donor T cells) is “Decreased GVHD”. Moreover, in data set [2] (setting [4]), the “clinical GVHD” value was “Significantly improved clinical GVHD”, the survival result is listed as “improved survival” and the weight loss entry is “less weight loss”. Besides, the “irradiation-induced apoptosis of IECs” value in data set [3] (irradiation 6 Gy) is on record as “conferred protection”. Besides, in data set [3] (no irradiation), the “toxicity to IECs” value was “not toxic”.
